Test: xn = mol fraction of the nth substance listed
Settings: 101 kPa, Liquid; for mass density: Vibrating tube method; for viscosity: Vibrating wire viscometry; for speed of sound: ultrasonic interferometer

C[NH+](C)C.O=S(=O)([O-])O [trimethylammonium hydrogen sulfate] + CN1CCCC1=O
Settings | mass density [kg/m3] | speed of sound [m/s] | viscosity [mPa·s]
298.15 K, x1 = 0.0183 | 1041.67 | 1572 | 2.72
298.15 K, x1 = 0.0369 | 1053.11 | 1573 | 3.99
298.15 K, x1 = 0.0964 | 1086.47 | 1576 | 6.59
298.15 K, x1 = 0.138 | 1103.99 | 1578 | 8.37
298.15 K, x1 = 0.2014 | 1128.96 | 1580 | 10.5
298.15 K, x1 = 0.3115 | 1160.07 | 1584 | 12.1
298.15 K, x1 = 0.3587 | 1170.49 | 1586 | 12.2
298.15 K, x1 = 0.4311 | 1187.05 | 1588 | 11.9
298.15 K, x1 = 0.5579 | 1214.39 | 1590 | 10.3
298.15 K, x1 = 0.6955 | 1257.13 | 1591 | 8.34
298.15 K, x1 = 0.775 | 1295.34 | 1584 | 7.25
298.15 K, x1 = 0.843 | 1334.58 | 1581 | 6.05
298.15 K, x1 = 0.9375 | 1403.82 | 1573 | 5.39
298.15 K, x1 = 0.97 | 1439.41 | 1566 | 5.24
298.15 K, x1 = 1 | 1467.58 | 1564 | 5.1
303.15 K, x1 = 0.0183 | 1037.3 | 1552 | 2.02
303.15 K, x1 = 0.0369 | 1048.09 | 1553 | 2.9
303.15 K, x1 = 0.0964 | 1080.22 | 1556 | 5.22
303.15 K, x1 = 0.138 | 1098.35 | 1558 | 6.83
303.15 K, x1 = 0.2014 | 1122.72 | 1562 | 8.56
303.15 K, x1 = 0.3115 | 1154.59 | 1568 | 9.88
303.15 K, x1 = 0.3587 | 1161.24 | 1571 | 9.93
303.15 K, x1 = 0.4311 | 1177.45 | 1573 | 9.66
303.15 K, x1 = 0.5579 | 1204.95 | 1577 | 8.28
303.15 K, x1 = 0.6955 | 1247.15 | 1575 | 6.8
303.15 K, x1 = 0.775 | 1283.75 | 1572 | 6.01
303.15 K, x1 = 0.843 | 1321.99 | 1571 | 5.07
303.15 K, x1 = 0.9375 | 1389.78 | 1567 | 4.66
303.15 K, x1 = 0.97 | 1426.11 | 1563 | 4.59
303.15 K, x1 = 1 | 1463.56 | 1560 | 4.48
308.15 K, x1 = 0.0183 | 1029.88 | 1529 | 1.91
308.15 K, x1 = 0.0369 | 1041.19 | 1530 | 2.48
308.15 K, x1 = 0.0964 | 1073.31 | 1534 | 4.55
308.15 K, x1 = 0.138 | 1091.47 | 1536 | 5.68
308.15 K, x1 = 0.2014 | 1115.24 | 1539 | 7.18
308.15 K, x1 = 0.3115 | 1146.54 | 1545 | 8.38
308.15 K, x1 = 0.3587 | 1155.39 | 1549 | 8.48
308.15 K, x1 = 0.4311 | 1170.29 | 1553 | 8.26
308.15 K, x1 = 0.5579 | 1196.63 | 1560 | 7.19
308.15 K, x1 = 0.6955 | 1239.34 | 1561 | 5.89
308.15 K, x1 = 0.775 | 1273.99 | 1560 | 5.25
308.15 K, x1 = 0.843 | 1315.25 | 1559 | 4.4
308.15 K, x1 = 0.9375 | 1383.15 | 1558 | 4.28
308.15 K, x1 = 0.97 | 1417.02 | 1557 | 4.01
308.15 K, x1 = 1 | 1463.5 | 1556 | 3.94
313.15 K, x1 = 0.0183 | 1024.27 | 1521 | 1.45
313.15 K, x1 = 0.0369 | 1035.08 | 1523 | 1.76
313.15 K, x1 = 0.0964 | 1066.52 | 1526 | 3.52
313.15 K, x1 = 0.138 | 1083.97 | 1528 | 4.79
313.15 K, x1 = 0.2014 | 1107.81 | 1530 | 6.19
313.15 K, x1 = 0.3115 | 1135.87 | 1539 | 7.09
313.15 K, x1 = 0.3587 | 1145.43 | 1541 | 7.14
313.15 K, x1 = 0.4311 | 1157.43 | 1545 | 6.99
313.15 K, x1 = 0.5579 | 1185.37 | 1550 | 6.15
313.15 K, x1 = 0.6955 | 1225.55 | 1551 | 4.7
313.15 K, x1 = 0.775 | 1260.83 | 1550 | 3.99
313.15 K, x1 = 0.843 | 1295.67 | 1553 | 3.52
313.15 K, x1 = 0.9375 | 1369.46 | 1552 | 3.35
313.15 K, x1 = 0.97 | 1404.25 | 1552 | 3.23
313.15 K, x1 = 1 | 1455.63 | 1552 | 3.16
